Several values for one entry are separate records, joined by “and”; a condition that tells them apart may be missing. Identical values can stand only once. Toxic doses and inconclusive results are not listed. No stated cut-off is given here; in the data, active means T/C of 150% or more; inactive means T/C below 125%. Peptide text beside a SMILES is read from it. * marks the point of attachment. Cbz = O=C(OCc1ccccc1)*
Tested on: L1210 leukemia ip in BDF1 mice, survival T/C
Assay: NCI In Vivo Anticancer Drug Screen. Data for tumor model L1210 Leukemia (intraperitoneal) in B6D2F1 (BDF1) mice
Settings: endpoint: mean survival time, higher = longer survival
Procedure, shortened: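 Survival endpoint. Drug-treated group vs vehicle group, expressed as T divided by C. Tumor passaged by transplantation.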

[1] = dose: 25.0 mg/kg/injection, schedule: Q01DX009 (ip), vehicle: Klucel (hydroxypropylcellulose) (HPC)
[2] = dose: 50.0 mg/kg/injection, schedule: Q01DX009 (ip), vehicle: Klucel (hydroxypropylcellulose) (HPC)
[3] = dose: 100.0 mg/kg/injection, schedule: Q04DX003 (ip), vehicle: Klucel (hydroxypropylcellulose) (HPC)
[4] = dose: 200.0 mg/kg/injection, schedule: Q04DX003 (ip), vehicle: Klucel (hydroxypropylcellulose) (HPC)
[5] = dose: 400.0 mg/kg/injection, schedule: Q04DX003 (ip), vehicle: Klucel (hydroxypropylcellulose) (HPC)
[6] = dose: 50.0 mg/kg/injection, schedule: Q01DX009 (ip), vehicle: saline
[7] = dose: 100.0 mg/kg/injection, schedule: Q01DX009 (ip), vehicle: saline
[8] = dose: 200.0 mg/kg/injection, schedule: Q01DX009 (ip), vehicle: saline
[9] = dose: 50.0 mg/kg/injection, schedule: Q01DX001 (ip), vehicle: Klucel (hydroxypropylcellulose) (HPC)
[10] = dose: 100.0 mg/kg/injection, schedule: Q01DX001 (ip), vehicle: Klucel (hydroxypropylcellulose) (HPC)
[11] = dose: 200.0 mg/kg/injection, schedule: Q01DX001 (ip), vehicle: Klucel (hydroxypropylcellulose) (HPC)
[12] = dose: 50.0 mg/kg/injection, schedule: Q01DX009 (ip), vehicle: saline with Tween-80
[13] = dose: 100.0 mg/kg/injection, schedule: Q01DX009 (ip), vehicle: saline with Tween-80
[14] = dose: 100.0 mg/kg/injection, schedule: Q04DX003 (ip), vehicle: saline with Tween-80
[15] = dose: 200.0 mg/kg/injection, schedule: Q01DX009 (ip), vehicle: saline with Tween-80
[16] = dose: 200.0 mg/kg/injection, schedule: Q04DX003 (ip), vehicle: saline with Tween-80
[17] = dose: 50.0 mg/kg/injection, schedule: Q04DX003 (ip), vehicle: Klucel (hydroxypropylcellulose) (HPC)
[18] = dose: 100.0 mg/kg/injection, schedule: Q01DX009 (ip), vehicle: Klucel (hydroxypropylcellulose) (HPC)
[19] = dose: 200.0 mg/kg/injection, schedule: Q01DX009 (ip), vehicle: Klucel (hydroxypropylcellulose) (HPC)
[20] = dose: 400.0 mg/kg/injection, schedule: Q01DX009 (ip), vehicle: Klucel (hydroxypropylcellulose) (HPC)
[21] = dose: 100.0 mg/kg/injection, schedule: Q04DX002 (ip), vehicle: Klucel (hydroxypropylcellulose) (HPC)
[22] = dose: 200.0 mg/kg/injection, schedule: Q04DX002 (ip), vehicle: Klucel (hydroxypropylcellulose) (HPC)
[23] = dose: 25.0 mg/kg/injection, schedule: Q01DX009 (ip), vehicle: saline with Tween-80

Measured: T/C

CCOC(=O)C(N=Nc1ccccc1)C(C)=O (stereo not given)
inactive: dose: 12.5 mg/kg/injection, schedule: Q01DX009 (ip), vehicle: Klucel (hydroxypropylcellulose) (HPC) 100 % of control | [1] 97 % of control | [2] 94 % of control | [3] 103 % of control | [4] 100 % of control | [5] 88 % of control

CCOc1cc([N+](=O)[O-])c(OCC)cc1C#N
inactive: dose: 5.0 mg/kg/injection, schedule: Q01DX001 (ip), vehicle: other 106 % of control | dose: 10.0 mg/kg/injection, schedule: Q01DX001 (ip), vehicle: other 90 % of control | dose: 20.0 mg/kg/injection, schedule: Q01DX001 (ip), vehicle: other 93 % of control

NS(=O)(=O)c1ccc(N=Nc2ncc(CC(NC3=CC(=O)C(=O)c4ccccc43)C(=O)O)[nH]2)cc1 (stereo not given)
inactive: [6] 96 % of control | [7] 96 % of control | [8] 105 % of control

O=c1[nH]c(=S)[nH]cc1CN(CCO)CCO
inactive: dose: 50.0 mg/kg/injection, schedule: Q01DX001 (ip), vehicle: saline 97 % of control | dose: 100.0 mg/kg/injection, schedule: Q01DX001 (ip), vehicle: saline 90 % of control | dose: 200.0 mg/kg/injection, schedule: Q01DX001 (ip), vehicle: saline 95 % of control

C=C1C(=O)OCC1(C(=O)OCC)C(=O)OCC
inactive: dose: 5.0 mg/kg/injection, schedule: Q01DX009 (ip), vehicle: saline 98 % of control | dose: 10.0 mg/kg/injection, schedule: Q01DX009 (ip), vehicle: saline 103 % of control | dose: 20.0 mg/kg/injection, schedule: Q01DX009 (ip), vehicle: saline 95 % of control

COc1ccc2c(c1)CCC1C2CCC2C(O)CCC(=O)C21 (stereo not given)
inactive: [9] 102 % of control | [10] 102 % of control | [11] 98 % of control

CCOC(=O)/C=C/c1ccco1
inactive: [12] 93 % of control | [13] 96 % of control | [14] 103 % of control | [15] 93 % of control | [16] 95 % of control

CCCCCCCS(=O)c1nc2ccccc2s1 (stereo not given)
inactive: dose: 100.0 mg/kg/injection, schedule: Q04DX002 (ip), vehicle: other 104 % of control | dose: 200.0 mg/kg/injection, schedule: Q04DX002 (ip), vehicle: other 91 % of control | dose: 400.0 mg/kg/injection, schedule: Q04DX002 (ip), vehicle: other 91 % of control

c1ccc(/C2=C(\c3ccccc3)CSSSSC2)cc1
inactive: [17] 105 % of control | [3] 98 % of control | [4] 98 % of control

CCOC(=O)CNCc1cccc(Cl)c1
inactive: [7] 98 % of control | dose: 100.0 mg/kg/injection, schedule: Q04DX003 (ip), vehicle: saline 102 % of control | [8] 95 % of control | dose: 200.0 mg/kg/injection, schedule: Q04DX003 (ip), vehicle: saline 100 % of control | dose: 400.0 mg/kg/injection, schedule: Q04DX003 (ip), vehicle: saline 95 % of control

CCOC(=O)C1C(=O)C(CN(CCCl)CCCl)C(=O)C(C(=O)OCC)C1c1ccc(O)cc1 (stereo not given)
inactive: [18] 113 % of control | [3] 106 % of control | [19] 112 % of control | [4] 110 % of control | [20] 110 % of control | [5] 114 % of control

CC1(C)C2=CCCCC2CC/C1=N\O (stereo not given)
inactive: [10] 105 % of control | [11] 105 % of control | dose: 400.0 mg/kg/injection, schedule: Q01DX001 (ip), vehicle: Klucel (hydroxypropylcellulose) (HPC) 100 % of control

Nc1c(Cl)cc(Cl)c2ccc([N+](=O)[O-])cc12
inactive: [18] 93 % of control | [3] 103 % of control | [19] 107 % of control | [4] 93 % of control | [20] 95 % of control | [5] 93 % of control

Cc1ccc(-n2c(O)c(N=Nc3ccccc3C)c(=O)n(-c3ccc(Cl)cc3)c2=S)cc1
inactive: [9] 104 % of control | [10] 102 % of control | [11] 102 % of control

CCC1(CC)OC2=C(CC(C#N)(C#N)C(C#N)(C#N)C2)O1
inactive: dose: 5.0 mg/kg/injection, schedule: Q01DX009 (ip), vehicle: Klucel (hydroxypropylcellulose) (HPC) 104 % of control | dose: 10.0 mg/kg/injection, schedule: Q01DX001 (ip), vehicle: saline 102 % of control | dose: 10.0 mg/kg/injection, schedule: Q01DX009 (ip), vehicle: Klucel (hydroxypropylcellulose) (HPC) 105 % of control | dose: 20.0 mg/kg/injection, schedule: Q01DX001 (ip), vehicle: saline 89 % of control | dose: 20.0 mg/kg/injection, schedule: Q01DX009 (ip), vehicle: Klucel (hydroxypropylcellulose) (HPC) 102 % of control

CCOC(=O)c1cnc(N(C)CC(=O)O)[nH]c1=O
inactive: [21] 94 % of control | [22] 94 % of control | dose: 400.0 mg/kg/injection, schedule: Q04DX002 (ip), vehicle: Klucel (hydroxypropylcellulose) (HPC) 107 % of control

CCCCCCCCCCCCC/C=C/CC(CC(=O)O)C(=O)Nc1ccc(-n2c(=O)cc(C)n2C)cc1 (stereo not given)
inactive: [14] 92 % of control | [16] 94 % of control | dose: 400.0 mg/kg/injection, schedule: Q04DX003 (ip), vehicle: saline with Tween-80 92 % of control

CC(CN)OCc1ccccc1 (stereo not given)
inactive: dose: 12.5 mg/kg/injection, schedule: Q01DX009 (ip), vehicle: saline 97 % of control | dose: 25.0 mg/kg/injection, schedule: Q01DX009 (ip), vehicle: saline 99 % of control | [6] 104 % of control

Clc1nc2nsnc2nc1Cl
inactive: [23] 91 % of control | [12] 110 % of control | [13] 96 % of control | [15] 104 % of control | dose: 400.0 mg/kg/injection, schedule: Q01DX009 (ip), vehicle: saline with Tween-80 94 % of control

CCCCCCCCCCCCCCCCSc1ccc(C)cc1
inactive: dose: 100.0 mg/kg/injection, schedule: Q01DX009 (ip), vehicle: other 88 % of control | [3] 89 % of control | dose: 200.0 mg/kg/injection, schedule: Q01DX009 (ip), vehicle: other 88 % of control | [4] 93 % of control | dose: 400.0 mg/kg/injection, schedule: Q01DX009 (ip), vehicle: other 112 % of control | [5] 96 % of control

O=Nc1ccc(O)cc1
inactive: [1] 96 % of control | dose: 25.0 mg/kg/injection, schedule: Q04DX002 (ip), vehicle: Klucel (hydroxypropylcellulose) (HPC) 104 % of control | dose: 25.0 mg/kg/injection, schedule: Q04DX003 (ip), vehicle: Klucel (hydroxypropylcellulose) (HPC) 102 % of control | [2] 102 % of control and 103 % of control | dose: 50.0 mg/kg/injection, schedule: Q04DX002 (ip), vehicle: Klucel (hydroxypropylcellulose) (HPC) 100 % of control | [17] 98 % of control | [18] 112 % of control and 123 % of control | [21] 104 % of control | [3] 100 % of control | [19] 100 % of control and 110 % of control | [22] 103 % of control | [4] 104 % of control

CSCCC(NC(=O)C(CO)NC(=O)OCc1ccccc1)C(=O)O (stereo not drawn) (Cbz-Ser-Met-OH; configuration not given here)
inactive: [3] 96 % of control | [4] 97 % of control | [5] 96 % of control

CCC(C)C(CO)c1ccccc1 (stereo not given)
inactive: [14] 93 % of control | [16] 91 % of control

O=C1c2ccccc2C(=O)C1c1nc2ccccc2cc1O
inactive: dose: 12.5 mg/kg/injection, schedule: Q01DX009 (ip), vehicle: saline with Tween-80 94 % of control | dose: 12.5 mg/kg/injection, schedule: Q04DX002 (ip), vehicle: saline with Tween-80 96 % of control | [23] 96 % of control and 102 % of control | dose: 25.0 mg/kg/injection, schedule: Q04DX002 (ip), vehicle: saline with Tween-80 104 % of control | [12] 102 % of control | dose: 50.0 mg/kg/injection, schedule: Q04DX002 (ip), vehicle: saline with Tween-80 89 % of control | dose: 115.0 mg/kg/injection, schedule: Q01DX009 (ip), vehicle: saline with Tween-80 93 % of control | dose: 170.0 mg/kg/injection, schedule: Q01DX009 (ip), vehicle: saline with Tween-80 100 % of control

From PubChem BioAssay AID248 (DTP/NCI, 2004)
